These results are taken from patent publication US7615651B2, “Diaryl, dipyridinyl and aryl-pyridinyl derivatives and uses thereof” (Pfizer Inc., priority 2006, dated 2009).

Structures are written as SMILES.

T2 sequence (P35372 whole entry): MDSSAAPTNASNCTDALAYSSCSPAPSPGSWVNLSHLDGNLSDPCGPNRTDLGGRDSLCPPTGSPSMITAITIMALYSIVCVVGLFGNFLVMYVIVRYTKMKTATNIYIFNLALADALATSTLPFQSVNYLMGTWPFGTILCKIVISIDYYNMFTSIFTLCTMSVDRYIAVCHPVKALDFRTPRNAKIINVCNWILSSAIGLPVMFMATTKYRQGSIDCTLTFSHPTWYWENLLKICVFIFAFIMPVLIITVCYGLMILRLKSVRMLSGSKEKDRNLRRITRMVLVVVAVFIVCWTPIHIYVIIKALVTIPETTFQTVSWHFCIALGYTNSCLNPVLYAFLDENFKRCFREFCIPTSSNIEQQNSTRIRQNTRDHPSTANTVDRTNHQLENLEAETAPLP

The target in the first experiment is T1, opioid receptor delta (Homo sapiens, UniProt P41143).
T1 construct: expressed in transfected cells
T1 sequence (P41143 whole entry): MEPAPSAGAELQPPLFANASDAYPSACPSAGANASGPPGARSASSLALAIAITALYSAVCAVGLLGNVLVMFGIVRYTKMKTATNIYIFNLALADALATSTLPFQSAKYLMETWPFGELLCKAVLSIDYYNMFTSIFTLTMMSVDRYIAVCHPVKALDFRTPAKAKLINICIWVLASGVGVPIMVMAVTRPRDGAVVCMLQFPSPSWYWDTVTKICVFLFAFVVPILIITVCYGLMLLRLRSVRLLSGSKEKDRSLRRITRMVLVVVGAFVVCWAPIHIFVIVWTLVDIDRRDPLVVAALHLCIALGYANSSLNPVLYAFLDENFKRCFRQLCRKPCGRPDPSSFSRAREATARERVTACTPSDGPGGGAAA
In words: GTPγ[35S] binding assay, antagonism of BW-373U86. Particulars: read-out: Delta functional Ki (GTPγ[35S] binding). The format is biochemical. On the procedure: (§1) Membranes were prepared from cells as described (Bass et al, 1996). GTPγ[5S] binding assays were performed in a 96 well FlashPlate™ format in duplicate using […] GTPγ[^35S] and 5 μg membrane per well in assay buffer composed of 50 mM Tris HCl, pH 7.4, 5 mM MgCl2, 1 mM EDTA, 100 mM NaCl, 30 μM GDP, 0.1% bovine serum albumin and the following protease inhibitors: 100 μg/ml bacitracin, 100 μg/ml benzamidine, 5 μg/ml aprotinin, 5 μg/ml leupeptin. The assay mix was then incubated at 30° C. with increasing concentrations of antagonist (10^−10 M to 10^−5 M) for 10 minutes and challenged with the agonists BW-373U86 (1 nM), dynorphin-A (10 nM), […] (1 μM) for opioid receptors delta, kappa, and mu, respectively. The assays were performed at 30° C. for one hour. The FlashPlates were then centrifuged at 2000×g for 10 minutes. Stimulation of GTPγ[^35S] binding was then quantified using a Wallac Microbeta and Ki calculations were done using Prism™ by Graphpad.
A general note: GTPγS resists hydrolysis and so accumulates on activated G proteins.
Take `NC(=O)c1ccc(-c2ccc(CNCCC3CCOCC3)cc2Cl)c(Cl)c1` [4B-67]: the Ki came out at 2.95 nM.

Take `NC(=O)c1ccc(-c2ccc(CNCCC3CCCCO3)cc2Cl)c(Cl)c1` (stereo not drawn) [4B-69]: the Ki came out at 4.09 nM.

Regarding `Cc1cc(CNCCC2CCOCC2)ccc1-c1ccc(C(N)=O)cc1C` [4B-70], the Ki came to 1.04 nM.

For `Cc1cc(CNCC2CCOCC2)ccc1-c1ccc(C(N)=O)cc1C` [4B-71], the Ki stood at 6.2 nM.

Regarding `Cc1cc(CNCC2CCCO2)ccc1-c1ccc(C(N)=O)cc1C` (stereo not drawn) [4B-72], the Ki was 13 nM.

For the compound `Cc1cc(CNC2Cc3ccccc3C2)ccc1-c1ccc(C(N)=O)cc1C` [4B-73], the Ki worked out at 0.135 nM.

Regarding `Cc1cc(C(N)=O)ccc1-c1cc(F)c(CNCCC(C)C)cc1F` [4B-74], the Ki worked out at 4.8 nM.

On to `CCc1cc(C(N)=O)ccc1-c1c(C)cc(CNCCC2CCOCC2)cc1C` [4B-76], for which the Ki amounted to 0.501 nM.

On to `CCc1cc(C(N)=O)ccc1-c1ccc(CNC2Cc3ccccc3C2)cc1C` [4B-77], for which the Ki was determined as 0.271 nM.

In the case of `NC(=O)c1ccc(-c2ccc(CNC[C@H]3CCCO3)cc2Cl)c(Cl)c1` [4B-78], the Ki was determined as 18.8 nM.

Turning to `CC(C)CCNCc1cc(F)c(-c2ccc(C(N)=O)cc2Cl)cc1F` [4B-80], the Ki is 11.8 nM.

Regarding `CCc1cc(C(N)=O)ccc1-c1cc(F)c(CNCCC(C)C)c(F)c1` [4B-81], the Ki was found to be 15.2 nM.

Consider `Cc1cc(CNC2Cc3ccccc3C2)cc(Cl)c1-c1ccc(C(N)=O)cc1Cl` [4B-82], for which the Ki was determined as 0.15 nM.

For `Cc1cc(C(N)=O)ccc1-c1c(C)cc(CNCCC(C)C)cc1Cl` [4B-83], the Ki was determined as 1.66 nM.

On to `Cc1cc(C(N)=O)ccc1-c1c(C)cc(CNC2Cc3ccccc3C2)cc1Cl` [4B-84], for which the Ki came out at 0.0778 nM.

As for `Cc1cc(C(N)=O)ccc1-c1ccc(CNCCC(C)C)c(OCc2ccccc2)c1` [4B-85], the Ki turned out to be 0.588 nM.

Turning to `Cc1cc(C(N)=O)ccc1-c1ccc(CNC2Cc3ccccc3C2)c(OCc2ccccc2)c1` [4B-86], the Ki turned out to be 0.0438 nM.

Turning to `Cc1cc(C(N)=O)ccc1-c1ccc(CNC2Cc3ccccc3C2)c(O)c1` [4B-88], the Ki was 0.591 nM.

As for `COc1cc(-c2ccc(C(N)=O)cc2C)ccc1CNC1Cc2ccccc2C1` [4B-89], the Ki was 0.0895 nM.

As for `Cc1cc(-c2ccc(C(N)=O)cc2C)ccc1CNCCC(C)C` [4B-90], the Ki was 1.66 nM.

Turning to `NC(=O)c1cnc(-c2ccc(CNC3Cc4ccccc4C3)cc2)c(Cl)c1` [4C-02], the Ki stood at 1.95 nM.

For the compound `Cc1cc(C(N)=O)cnc1-c1ccc(CNC2Cc3ccccc3C2)cc1` [4C-03], the Ki came to 0.822 nM.

`NC(=O)c1cccc(-c2ccc(CNCCc3cscn3)cc2Cl)c1` [6A-02]: the Ki was found to be 23.5 nM.

Turning to `NC(=O)c1cccc(-c2ccc(CN[C@H]3c4ccccc4C[C@H]3O)cc2Cl)c1` [6A-03], the Ki is 35.9 nM.

A further experiment concerns the target T2, opioid receptor mu (Homo sapiens, UniProt P35372).
T2 construct: expressed in transfected cells
In words: GTPγ[35S] binding assay, antagonism of endorphin. Particulars: read-out: Mu functional Ki (GTPγ[35S] binding). The format is biochemical. The protocol:
as §1
As to `NC(=O)c1ccc(-c2ccc(CNCCC3CCOCC3)cc2Cl)c(Cl)c1` [4B-67], the Ki was found to be 7.22 nM.

Turning to `NC(=O)c1ccc(-c2ccc(CNCCC3CCCCO3)cc2Cl)c(Cl)c1` (stereo not drawn) [4B-69], the Ki amounted to 2.78 nM.

As to `Cc1cc(CNCCC2CCOCC2)ccc1-c1ccc(C(N)=O)cc1C` [4B-70], the Ki is 2 nM.

Regarding `Cc1cc(CNCC2CCOCC2)ccc1-c1ccc(C(N)=O)cc1C` [4B-71], the Ki came to 8.37 nM.

For `Cc1cc(CNCC2CCCO2)ccc1-c1ccc(C(N)=O)cc1C` (stereo not drawn) [4B-72], the Ki is 9.83 nM.

As for `Cc1cc(CNC2Cc3ccccc3C2)ccc1-c1ccc(C(N)=O)cc1C` [4B-73], the Ki was determined as 0.0298 nM.

Turning to `Cc1cc(C(N)=O)ccc1-c1cc(F)c(CNCCC(C)C)cc1F` [4B-74], the Ki was 4.37 nM.

`CCc1cc(C(N)=O)ccc1-c1c(C)cc(CNCCC2CCOCC2)cc1C` [4B-76]: the Ki was found to be 1.02 nM.

For the compound `CCc1cc(C(N)=O)ccc1-c1ccc(CNC2Cc3ccccc3C2)cc1C` [4B-77], the Ki worked out at 0.114 nM.

As to `NC(=O)c1ccc(-c2ccc(CNC[C@H]3CCCO3)cc2Cl)c(Cl)c1` [4B-78], the Ki came to 35.1 nM.

In the case of `CC(C)CCNCc1cc(F)c(-c2ccc(C(N)=O)cc2Cl)cc1F` [4B-80], the Ki was determined as 13.7 nM.

In the case of `CCc1cc(C(N)=O)ccc1-c1cc(F)c(CNCCC(C)C)c(F)c1` [4B-81], the Ki was 13.4 nM.

Regarding `Cc1cc(CNC2Cc3ccccc3C2)cc(Cl)c1-c1ccc(C(N)=O)cc1Cl` [4B-82], the Ki stood at 0.0287 nM.

Take `Cc1cc(C(N)=O)ccc1-c1c(C)cc(CNCCC(C)C)cc1Cl` [4B-83]: the Ki amounted to 0.429 nM.

On to `Cc1cc(C(N)=O)ccc1-c1c(C)cc(CNC2Cc3ccccc3C2)cc1Cl` [4B-84], for which the Ki was 0.0145 nM.

As for `Cc1cc(C(N)=O)ccc1-c1ccc(CNCCC(C)C)c(OCc2ccccc2)c1` [4B-85], the Ki was determined as 2.48 nM.

With `Cc1cc(C(N)=O)ccc1-c1ccc(CNC2Cc3ccccc3C2)c(OCc2ccccc2)c1` [4B-86], the Ki came out at 0.0895 nM.

As for `Cc1cc(C(N)=O)ccc1-c1ccc(CNC2Cc3ccccc3C2)c(O)c1` [4B-88], the Ki was 0.134 nM.

Turning to `COc1cc(-c2ccc(C(N)=O)cc2C)ccc1CNC1Cc2ccccc2C1` [4B-89], the Ki came out at 0.0272 nM.

In the case of `Cc1cc(-c2ccc(C(N)=O)cc2C)ccc1CNCCC(C)C` [4B-90], the Ki came to 1.17 nM.

Regarding `NC(=O)c1cnc(-c2ccc(CNC3Cc4ccccc4C3)cc2)c(Cl)c1` [4C-02], the Ki was 0.489 nM.

On to `Cc1cc(C(N)=O)cnc1-c1ccc(CNC2Cc3ccccc3C2)cc1` [4C-03], for which the Ki is 0.201 nM.

Take `NC(=O)c1cccc(-c2ccc(CNCCc3cscn3)cc2Cl)c1` [6A-02]: the Ki stood at 12.4 nM.

Take `NC(=O)c1cccc(-c2ccc(CN[C@H]3c4ccccc4C[C@H]3O)cc2Cl)c1` [6A-03]: the Ki worked out at 2.94 nM.

The next experiment deals with T3, opioid receptor kappa (Homo sapiens, UniProt P41145).
T3 construct: expressed in transfected cells
T3 sequence (P41145 whole entry): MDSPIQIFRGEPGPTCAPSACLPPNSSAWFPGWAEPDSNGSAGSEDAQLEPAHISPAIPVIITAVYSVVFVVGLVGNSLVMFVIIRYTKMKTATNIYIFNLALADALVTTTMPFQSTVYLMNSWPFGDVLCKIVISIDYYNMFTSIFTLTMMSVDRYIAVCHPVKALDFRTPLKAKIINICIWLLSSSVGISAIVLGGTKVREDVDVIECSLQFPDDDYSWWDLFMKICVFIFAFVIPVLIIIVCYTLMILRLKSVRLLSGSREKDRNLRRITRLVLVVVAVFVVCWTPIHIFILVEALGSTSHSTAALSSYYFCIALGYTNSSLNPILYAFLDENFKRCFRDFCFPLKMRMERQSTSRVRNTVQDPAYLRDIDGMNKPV
Nature of the experiment: GTPγ[35S] binding assay, antagonism of dynorphin-A. To be noted: read-out: Kappa functional Ki (GTPγ[35S] binding). The format is biochemical. The protocol: as §1
Turning to `NC(=O)c1ccc(-c2ccc(CNCCC3CCOCC3)cc2Cl)c(Cl)c1` [4B-67], the Ki was 3.62 nM.

Turning to `NC(=O)c1ccc(-c2ccc(CNCCC3CCCCO3)cc2Cl)c(Cl)c1` (stereo not drawn) [4B-69], the Ki was 4.54 nM.

Consider `Cc1cc(CNCCC2CCOCC2)ccc1-c1ccc(C(N)=O)cc1C` [4B-70], for which the Ki was 2.48 nM.

`Cc1cc(CNCC2CCOCC2)ccc1-c1ccc(C(N)=O)cc1C` [4B-71]: the Ki amounted to 6.91 nM.

Consider `Cc1cc(CNCC2CCCO2)ccc1-c1ccc(C(N)=O)cc1C` (stereo not drawn) [4B-72], for which the Ki came out at 5.44 nM.

As for `Cc1cc(CNC2Cc3ccccc3C2)ccc1-c1ccc(C(N)=O)cc1C` [4B-73], the Ki was found to be 0.318 nM.

Take `Cc1cc(C(N)=O)ccc1-c1cc(F)c(CNCCC(C)C)cc1F` [4B-74]: the Ki amounted to 4.45 nM.

As for `CCc1cc(C(N)=O)ccc1-c1c(C)cc(CNCCC2CCOCC2)cc1C` [4B-76], the Ki is 8.11 nM.

`CCc1cc(C(N)=O)ccc1-c1ccc(CNC2Cc3ccccc3C2)cc1C` [4B-77]: the Ki came to 0.949 nM.

Regarding `NC(=O)c1ccc(-c2ccc(CNC[C@H]3CCCO3)cc2Cl)c(Cl)c1` [4B-78], the Ki amounted to 8.48 nM.

Take `CC(C)CCNCc1cc(F)c(-c2ccc(C(N)=O)cc2Cl)cc1F` [4B-80]: the Ki is 9.5 nM.

Regarding `CCc1cc(C(N)=O)ccc1-c1cc(F)c(CNCCC(C)C)c(F)c1` [4B-81], the Ki worked out at 16.8 nM.

On to `Cc1cc(CNC2Cc3ccccc3C2)cc(Cl)c1-c1ccc(C(N)=O)cc1Cl` [4B-82], for which the Ki stood at 1.77 nM.

For `Cc1cc(C(N)=O)ccc1-c1c(C)cc(CNCCC(C)C)cc1Cl` [4B-83], the Ki was found to be 3.71 nM.

As to `Cc1cc(C(N)=O)ccc1-c1c(C)cc(CNC2Cc3ccccc3C2)cc1Cl` [4B-84], the Ki was found to be 0.593 nM.

`Cc1cc(C(N)=O)ccc1-c1ccc(CNCCC(C)C)c(OCc2ccccc2)c1` [4B-85]: the Ki was 5.48 nM.

Regarding `Cc1cc(C(N)=O)ccc1-c1ccc(CNC2Cc3ccccc3C2)c(OCc2ccccc2)c1` [4B-86], the Ki was 1.74 nM.

Regarding `Cc1cc(C(N)=O)ccc1-c1ccc(CNC2Cc3ccccc3C2)c(O)c1` [4B-88], the Ki worked out at 0.78 nM.

As to `COc1cc(-c2ccc(C(N)=O)cc2C)ccc1CNC1Cc2ccccc2C1` [4B-89], the Ki was 0.366 nM.

With `Cc1cc(-c2ccc(C(N)=O)cc2C)ccc1CNCCC(C)C` [4B-90], the Ki came to 1.66 nM.

As to `NC(=O)c1cnc(-c2ccc(CNC3Cc4ccccc4C3)cc2)c(Cl)c1` [4C-02], the Ki was found to be 1.95 nM.

Take `Cc1cc(C(N)=O)cnc1-c1ccc(CNC2Cc3ccccc3C2)cc1` [4C-03]: the Ki came to 0.982 nM.

`NC(=O)c1cccc(-c2ccc(CNCCc3cscn3)cc2Cl)c1` [6A-02]: the Ki turned out to be 473 nM.

Consider `NC(=O)c1cccc(-c2ccc(CN[C@H]3c4ccccc4C[C@H]3O)cc2Cl)c1` [6A-03], for which the Ki amounted to 9.35 nM.
